Tested on: A375 multi-cell spheroids with HUVEC/MSC, viability
Assay: Anticancer human tumor A375 cell line growth inhibition [GQUAD];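 note: spheroids exposed to compounds for seven days before readout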
Settings: for IC50: curve of first compound; for viability, T/C: stronger effect = lower value
How it was run: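 Viability of tumor cells grown as complex spheroids with endothelial and stromal cells, exposed to drug combinations. Top concentration at or near clinical Cmax (else 10 microM), diluted in half-log increments.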

[1] = second compound 0.0316 µM, first compound 0.0316 µM
[2] = second compound 0.0316 µM, first compound 0.1 µM
[3] = second compound 0.0316 µM, first compound 0.316 µM
[4] = second compound 0.0316 µM, first compound 1 µM
[5] = second compound 0.0316 µM, first compound 3.16 µM
[6] = second compound 0.0316 µM, first compound 10 µM
[7] = second compound 0.1 µM, first compound 0.0316 µM
[8] = second compound 0.1 µM, first compound 0.1 µM
[9] = second compound 0.1 µM, first compound 0.316 µM
[10] = second compound 0.1 µM, first compound 1 µM
[11] = second compound 0.1 µM, first compound 3.16 µM
[12] = second compound 0.1 µM, first compound 10 µM
[13] = second compound 0.316 µM, first compound 0.0316 µM
[14] = second compound 0.316 µM, first compound 0.1 µM
[15] = second compound 0.316 µM, first compound 0.316 µM
[16] = second compound 0.316 µM, first compound 1 µM
[17] = second compound 0.316 µM, first compound 3.16 µM
[18] = second compound 0.316 µM, first compound 10 µM
[19] = second compound 1 µM, first compound 0.0316 µM
[20] = second compound 1 µM, first compound 0.1 µM
[21] = second compound 1 µM, first compound 0.316 µM
[22] = second compound 1 µM, first compound 1 µM
[23] = second compound 1 µM, first compound 3.16 µM
[24] = second compound 1 µM, first compound 10 µM
[25] = second compound 3.16 µM, first compound 0.0316 µM
[26] = second compound 3.16 µM, first compound 0.1 µM
[27] = second compound 3.16 µM, first compound 0.316 µM
[28] = second compound 3.16 µM, first compound 1 µM
[29] = second compound 3.16 µM, first compound 3.16 µM
[30] = second compound 3.16 µM, first compound 10 µM
[31] = second compound 10 µM, first compound 0.0316 µM
[32] = second compound 10 µM, first compound 0.1 µM
[33] = second compound 10 µM, first compound 0.316 µM
[34] = second compound 10 µM, first compound 1 µM
[35] = second compound 10 µM, first compound 3.16 µM
[36] = second compound 10 µM, first compound 10 µM

CC1COCCN1c1cc(-c2ccnn2C)c2ccnc(-c3ccn[nH]3)c2n1 (centres undefined) + Cc1[nH]c2ccc(F)cc2c1-c1nc2c3cccnc3c3ncccc3c2[nH]1
IC50 (second compound 0.0316 µM): 0.628 µM | IC50 (second compound 0.1 µM): 0.613 µM | IC50 (second compound 0.316 µM): 0.454 µM | IC50 (second compound 1 µM): 0.384 µM | IC50 (second compound 3.16 µM): 0.0351 µM | IC50 (second compound 10 µM): 0.0527 µM | viability, T/C [1]: 111% | viability, T/C [2]: 108% | viability, T/C [3]: 75.3% | viability, T/C [4]: 33.3% | viability, T/C [5]: 13.1% | viability, T/C [6]: 12.3% | viability, T/C [7]: 116% | viability, T/C [8]: 113% | viability, T/C [9]: 66.4% | viability, T/C [10]: 39% | viability, T/C [11]: 12.2% | viability, T/C [12]: 10.8% | viability, T/C [13]: 114% | viability, T/C [14]: 128% | viability, T/C [15]: 62.6% | viability, T/C [16]: 34% | viability, T/C [17]: 13.5% | viability, T/C [18]: 12.7% | viability, T/C [19]: 97.7% | viability, T/C [20]: 87.3% | viability, T/C [21]: 52.1% | viability, T/C [22]: 30% | viability, T/C [23]: 15.6% | viability, T/C [24]: 14% | viability, T/C [25]: 52.7% | viability, T/C [26]: 29.4% | viability, T/C [27]: 23% | viability, T/C [28]: 18.2% | viability, T/C [29]: 11.8% | viability, T/C [30]: 9.5% | viability, T/C [31]: 63.3% | viability, T/C [32]: 30.2% | viability, T/C [33]: 27.9% | viability, T/C [34]: 21.4% | viability, T/C [35]: 18% | viability, T/C [36]: 11.7%

CC1COCCN1c1cc(C2(O)CC3CCC(C2)O3)c2cnn(-c3ccn[nH]3)c2n1 (centres undefined) + Cc1[nH]c2ccc(F)cc2c1-c1nc2c3cccnc3c3ncccc3c2[nH]1
IC50 (second compound 0.0316 µM): 0.339 µM | IC50 (second compound 0.1 µM): 0.352 µM | IC50 (second compound 0.316 µM): 0.282 µM | IC50 (second compound 1 µM): 0.21 µM | IC50 (second compound 3.16 µM): < 0.0316 µM | IC50 (second compound 10 µM): < 0.0316 µM | viability, T/C [1]: 114% | viability, T/C [2]: 103% | viability, T/C [3]: 51.9% | viability, T/C [4]: 16.9% | viability, T/C [5]: 12.2% | viability, T/C [6]: 8.69% | viability, T/C [7]: 113% | viability, T/C [8]: 94.9% | viability, T/C [9]: 54% | viability, T/C [10]: 18% | viability, T/C [11]: 13.2% | viability, T/C [12]: 7.58% | viability, T/C [13]: 122% | viability, T/C [14]: 85% | viability, T/C [15]: 47.8% | viability, T/C [16]: 19.7% | viability, T/C [17]: 13.3% | viability, T/C [18]: 9.21% | viability, T/C [19]: 79.1% | viability, T/C [20]: 67.4% | viability, T/C [21]: 40.7% | viability, T/C [22]: 16.6% | viability, T/C [23]: 13.3% | viability, T/C [24]: 8.26% | viability, T/C [25]: 31.5% | viability, T/C [26]: 17.9% | viability, T/C [27]: 13.5% | viability, T/C [28]: 11.2% | viability, T/C [29]: 6.29% | viability, T/C [30]: 1.15% | viability, T/C [31]: 39% | viability, T/C [32]: 18.9% | viability, T/C [33]: 18.6% | viability, T/C [34]: 9.83% | viability, T/C [35]: 11.4% | viability, T/C [36]: 3.18%

Reference: PubChem BioAssay AID2060485 (Molecular Pharmacology Branch, DTP, NCI, 2025)
